Reference: patent US20230286970A1, “NOVEL OXADIAZOLE-BASED SELECTIVE HDAC6 INHIBITORS” (ITALFARMACO S.P.A., priority 2020, published 2023)

Experiments:
recombinant human HDAC6 = recombinant human HDAC6 (Homo sapiens (Human), UniProt Q9UBN7); assay: Enzymatic screening, HDAC6 inhibition (fluorogenic FdL_G substrate); assay type: biochemical
Summary of the method: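 Enzyme was preincubated with compound (8 doses, triplicate, 1% DMSO) in 25 mM Tris-HCl pH 8, 130 mM NaCl, 0.05% Tween-20, 10% glycerol, with BSA. A FLUOR DE LYS-Green substrate was then added, and fluorescence was read after developer plus 2 μM TSA.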

recombinant human HDAC1 = recombinant human HDAC1 (Homo sapiens (Human), UniProt Q13547); assay: Enzymatic screening, HDAC1 inhibition (fluorogenic FdL_G substrate); assay type: biochemical
recombinant human HDAC1, sequence (Q13547 whole entry): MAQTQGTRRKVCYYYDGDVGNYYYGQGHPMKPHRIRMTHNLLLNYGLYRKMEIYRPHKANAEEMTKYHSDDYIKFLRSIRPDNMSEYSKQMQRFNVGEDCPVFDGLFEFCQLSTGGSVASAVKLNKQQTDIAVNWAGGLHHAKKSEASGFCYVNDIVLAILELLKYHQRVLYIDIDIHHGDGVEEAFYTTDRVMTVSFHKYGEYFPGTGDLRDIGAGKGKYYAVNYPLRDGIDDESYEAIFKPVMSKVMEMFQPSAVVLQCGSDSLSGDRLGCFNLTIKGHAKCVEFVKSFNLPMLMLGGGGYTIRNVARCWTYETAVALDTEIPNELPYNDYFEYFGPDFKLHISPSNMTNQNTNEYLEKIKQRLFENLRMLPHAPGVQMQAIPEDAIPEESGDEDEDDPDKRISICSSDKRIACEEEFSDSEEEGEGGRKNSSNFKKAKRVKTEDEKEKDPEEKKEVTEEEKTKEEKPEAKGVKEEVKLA
Summary of the method: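 Recombinant human HDAC1 inhibition was measured fluorometrically using the FLUOR DE LYS-Green (FdL_G) substrate. Compounds at 8 doses (1% DMSO final) in Tris-HCl pH 8 buffer with NaCl, Tween-20 and glycerol were preincubated in triplicate with enzyme and 1 mg/mL BSA, then given substrate. Developer I plus 2 μM TSA was added, and fluorescence read after 25 minutes in the dark.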

recombinant human HDAC6, sequence (Q9UBN7 whole entry): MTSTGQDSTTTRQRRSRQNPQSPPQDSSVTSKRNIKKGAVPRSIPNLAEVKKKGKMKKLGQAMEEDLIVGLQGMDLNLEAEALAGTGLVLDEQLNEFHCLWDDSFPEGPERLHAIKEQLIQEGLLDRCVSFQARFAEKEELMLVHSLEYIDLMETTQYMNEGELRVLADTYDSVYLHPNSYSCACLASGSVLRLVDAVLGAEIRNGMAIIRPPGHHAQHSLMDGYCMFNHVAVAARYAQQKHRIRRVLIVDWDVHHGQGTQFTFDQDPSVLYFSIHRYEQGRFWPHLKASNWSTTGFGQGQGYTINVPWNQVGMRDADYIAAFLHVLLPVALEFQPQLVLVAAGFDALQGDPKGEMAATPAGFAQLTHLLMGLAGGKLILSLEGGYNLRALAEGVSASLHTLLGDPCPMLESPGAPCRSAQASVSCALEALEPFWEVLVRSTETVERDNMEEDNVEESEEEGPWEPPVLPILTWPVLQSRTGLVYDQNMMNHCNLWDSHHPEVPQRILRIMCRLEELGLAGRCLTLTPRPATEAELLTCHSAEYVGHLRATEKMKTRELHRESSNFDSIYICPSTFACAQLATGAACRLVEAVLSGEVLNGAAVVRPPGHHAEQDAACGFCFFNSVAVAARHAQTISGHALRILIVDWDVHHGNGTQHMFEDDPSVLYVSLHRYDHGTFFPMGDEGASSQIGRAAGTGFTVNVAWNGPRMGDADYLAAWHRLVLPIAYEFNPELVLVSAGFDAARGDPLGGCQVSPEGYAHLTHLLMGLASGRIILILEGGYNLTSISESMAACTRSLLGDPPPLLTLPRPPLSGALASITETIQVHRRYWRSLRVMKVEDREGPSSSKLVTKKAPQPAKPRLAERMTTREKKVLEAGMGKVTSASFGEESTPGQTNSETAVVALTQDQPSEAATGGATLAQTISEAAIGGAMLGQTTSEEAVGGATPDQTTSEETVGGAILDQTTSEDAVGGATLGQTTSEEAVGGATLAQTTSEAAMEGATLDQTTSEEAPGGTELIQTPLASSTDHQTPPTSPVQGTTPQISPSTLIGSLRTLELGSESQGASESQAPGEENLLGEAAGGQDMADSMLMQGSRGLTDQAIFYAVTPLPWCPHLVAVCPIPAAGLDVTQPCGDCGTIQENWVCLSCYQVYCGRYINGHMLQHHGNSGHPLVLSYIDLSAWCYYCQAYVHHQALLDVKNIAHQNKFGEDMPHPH

| IC50 (recombinant human HDAC6) | IC50 (recombinant human HDAC1) | SMILES |
| --- | --- | --- |
| 41 nM | > 1e+06 nM | Nc1ccc(-c2cn([C@@H](CN3CCCC3)c3ccc(-c4nnc(C(F)F)o4)cc3)nn2)cn1 [compound 312, 5-[1-[(1R)-1-[4-[5-(difluoromethyl)-1,3,4-oxadiazol-2-yl]phenyl]-2-pyrrolidin-1-ylethyl]triazol-4-yl]pyridin-2-amine] |
| 56 nM | > 1e+06 nM | FC(F)c1nnc(-c2ccc(Cc3cn(-c4ccc(NC5=NCCN5)cc4)nn3)cc2)o1 [compound 316, N-(4-(4-(4-(5-(difluoromethyl)-1,3,4-oxadiazol-2-yl)benzyl)-1H-1,2,3-triazol-1-yl)phenyl)-4,5-dihydro-1H-imidazol-2-amine] |
| 24 nM | > 1e+06 nM | Nc1nc2ccc(-c3cn(Cc4ccc(-c5nnc(C(F)F)o5)cc4F)nn3)cc2s1 [compound 339, 6-[1-[[4-[5-(difluoromethyl)-1,3,4-oxadiazol-2-yl]-2-fluorophenyl]methyl]triazol-4-yl]-1,3-benzothiazol-2-amine] |
| 48 nM | 178000 nM | Cn1c(N)nc2cc(-c3cn(Cc4ncc(-c5nnc(C(F)F)o5)cc4F)nn3)ccc21 [compound 349, 5-[1-[[5-[5-(difluoromethyl)-1,3,4-oxadiazol-2-yl]-3-fluoropyridin-2-yl]methyl]triazol-4-yl]-1-methylbenzimidazol-2-amine] |
| 101 nM | > 1e+06 nM | O=C(Nc1cccc(-c2cn(Cc3ccc(-c4nnc(C(F)F)o4)c(F)c3F)nn2)c1)N1CCOCC1 [compound 338, N-[3-[1-[[4-[5-(difluoromethyl)-1,3,4-oxadiazol-2-yl]-2,3-difluorophenyl]methyl]triazol-4-yl]phenyl]morpholine-4-carboxamide] |
| 25 nM | 183000 nM | Fc1cc(-c2nnc(C(F)F)o2)ccc1Cn1nnc(-c2cccc(-c3nc4c([nH]3)CCNC4)c2)n1 [compound 354, 2-(difluoromethyl)-5-[3-fluoro-4-[[5-[3-(4,5,6,7-tetrahydro-1H-imidazo[4,5-c]pyridin-2-yl)phenyl]tetrazol-2-yl]methyl]phenyl]-1,3,4-oxadiazole] |
| 17 nM | > 1e+06 nM | [2H]C([2H])(c1ccc(-c2nnc(C(F)F)o2)cn1)n1cc(-c2cccc(NC(=O)N3CCOCC3)c2)nn1 [compound 369, N-[3-[1-[dideuterio-[5-[5-(difluoromethyl)-1,3,4-oxadiazol-2-yl]pyridin-2-yl]methyl]triazol-4-yl]phenyl]morpholine-4-carboxamide] |
| 135 nM | > 1e+06 nM | Nc1nc2ccc(-c3cn(Cc4ccc(-c5nnc(C(F)F)o5)c(F)c4F)nn3)cc2s1 [compound 341, 6-[1-[[4-[5-(difluoromethyl)-1,3,4-oxadiazol-2-yl]-2,3-difluorophenyl]methyl]triazol-4-yl]-1,3-benzothiazol-2-amine] |
| 26 nM | > 1e+06 nM | Cn1c(N)nc2cc(-c3nnn(Cc4ccc(-c5nnc(C(F)F)o5)c(F)c4)n3)ccc21 [compound 373, 5-[2-[[4-[5-(difluoromethyl)-1,3,4-oxadiazol-2-yl]-3-fluorophenyl]methyl]tetrazol-5-yl]-1-methylbenzimidazol-2-amine] |
| 179 nM | > 200000 nM | CC(c1ccc(-c2nnc(C(F)F)o2)cc1)n1nnc(-c2ccc3c(c2)C(=O)N(C)CC3)n1 (stereo not shown) [compound 229, 7-(2-(1-(4-(5-(difluoromethyl)-1,3,4-oxadiazol-2-yl)phenyl)ethyl)-2H-tetrazol-5-yl)-2-methyl-3,4-dihydroisoquinolin-1 (2H)-one] |
| 198 nM | > 200000 nM | CN1CCC(NC(=O)c2ccc(-c3nnn(Cc4ccc(-c5nnc(C(F)F)o5)cc4)n3)cc2)CC1 [compound 232, 4-(2-(4-(5-(difluoromethyl)-1,3,4-oxadiazol-2-yl)benzyl)-2H-tetrazol-5-yl)-N-(1-methylpiperidin-4-yl)benzamide] |
| 249 nM | 1e+06 nM | Nc1nccc2cc(-c3nnn(Cc4ccc(-c5nnc(C(F)F)o5)cc4Cl)n3)ccc12 [compound 422, 6-(2-(2-chloro-4-(5-(difluoromethyl)-1,3,4-oxadiazol-2-yl)benzyl)-2H-tetrazol-5-yl)isoquinolin-1-amine] |
| 240 nM | > 200000 nM | CCCCC(c1ccc(-c2nnc(C(F)F)o2)cc1)n1cc(-c2cccc(NC(=O)N3CCOCC3)c2)nn1 (stereo not shown) [compound 244, N-(3-(1-(1-(4-(5-(difluoromethyl)-1,3,4-oxadiazol-2-yl)phenyl)pentyl)-1H-1,2,3-triazol-4-yl)phenyl)morpholine-4-carboxamide] |
| 27 nM | > 1e+06 nM | Cn1c(N)nc2cc(-c3cn(Cc4ccc(-c5nnc(C(F)F)o5)cc4)cn3)ccc21 [compound 329, 5-[1-[[4-[5-(difluoromethyl)-1,3,4-oxadiazol-2-yl]phenyl]methyl]imidazol-4-yl]-1-methylbenzimidazol-2-amine] |
| 217 nM | 1e+06 nM | CNc1ncc2cc(-c3cn(Cc4cc(F)c(-c5nnc(C(F)F)o5)cc4F)nn3)ccc2n1 [compound 391, 6-[1-({4-[5-(difluoromethyl)-1,3,4-oxadiazol-2-yl]-2,5-difluorophenyl}methyl)-1H-1,2,3-triazol-4-yl]-N-methylquinazolin-2-amine] |
| 46 nM | 1e+06 nM | Nc1ncnc2sc(-c3cn(Cc4ccc(-c5nnc(C(F)F)o5)cc4F)nn3)cc12 [compound 416, 6-[1-({4-[5-(difluoromethyl)-1,3,4-oxadiazol-2-yl]-2-fluorophenyl}methyl)-1H-1,2,3-triazol-4-yl]thieno[2,3-d]pyrimidin-4-amine] |

Second part, the compound before the results:

| SMILES | IC50 (recombinant human HDAC6) | IC50 (recombinant human HDAC1) |
| --- | --- | --- |
| Nc1ccc(-c2cn(Cc3ccc(-c4nnc(C(F)F)o4)cc3F)nn2)cn1 [compound 48, 5-(1-(4-(5-(difluoromethyl)-1,3,4-oxadiazol-2-yl)-2-fluorobenzyl)-1H-1,2,3-triazol-4-yl)pyridin-2-amine] | 21 nM | > 30000 nM |
| FC(F)c1nnc(-c2ccc(Cn3cc(-c4ccc5cn[nH]c5c4)nn3)cc2)o1 [compound 222, 2-(4-((4-(1H-indazol-6-yl)-1H-1,2,3-triazol-1-yl)methyl)phenyl)-5-(difluoromethyl)-1,3,4-oxadiazole] | 160 nM | > 200000 nM |
| Nc1nc2cc(-c3nnn(Cc4ccc(-c5nnc(C(F)F)o5)cc4)n3)ccc2o1 [compound 152, 5-(2-(4-(5-(difluoromethyl)-1,3,4-oxadiazol-2-yl)benzyl)-2H-tetrazol-5-yl)benzo[d]oxazol-2-amine] | 65 nM | > 200000 nM |
| CNC(=O)Nc1ccc(-c2nnc(Cc3ccc(-c4nnc(C(F)F)o4)cc3)o2)cn1 [compd. 170, 1-(5-(5-(4-(5-(difluoromethyl)-1,3,4-oxadiazol-2-yl)benzyl)-1,3,4-oxadiazol-2-yl)pyridin-2-yl)-3-methylurea] | 81 nM | > 200000 nM |
| NCc1ccc(-c2nnn(Cc3ccc(-c4nnc(C(F)F)o4)cc3)n2)cc1 [compound 43, (4-(2-(4-(5-(difluoromethyl)-1,3,4-oxadiazol-2-yl)benzyl)-2H-tetrazol-5-yl)phenyl)methanamine] | 20 nM | 74900 nM |
| O=C(Nc1cccc(-c2nc(Cc3c(F)cc(-c4nnc(C(F)F)o4)cc3F)no2)c1)N1CCOCC1 [Compd. 145, N-(3-(3-(4-(5-(difluoromethyl)-1,3,4-oxadiazol-2-yl)-2,6-difluorobenzyl)-1,2,4-oxadiazol-5-yl)phenyl)morpholine-4-carboxamide] | 61 nM | > 200000 nM |
| Nc1ccc(-c2noc(Cc3ccc(-c4nnc(C(F)F)o4)cc3)n2)cn1 [compound 135, 5-(5-(4-(5-(difluoromethyl)-1,3,4-oxadiazol-2-yl)benzyl)-1,2,4-oxadiazol-3-yl)pyridin-2-amine] | 53 nM | > 200000 nM |
| CCS(=O)(=O)N1CCN(Cc2ccc(-c3cn(Cc4c(F)cc(-c5nnc(C(F)F)o5)cc4F)nn3)cc2)CC1 [compound 169, 2-(difluoromethyl)-5-(4-((4-(4-((4-(ethylsulfonyl)piperazin-1-yl)methyl)phenyl)-1H-1,2,3-triazol-1-yl)methyl)-3,5-difluorophenyl)-1,3,4-oxadiazole] | 81 nM | > 200000 nM |
| Nc1ccc(-c2cn(C(Cc3ccc(Cl)cc3)c3ccc(-c4nnc(C(F)F)o4)cc3)nn2)cn1 (stereo not shown) [Compd. 231, 5-(1-(2-(4-chlorophenyl)-1-(4-(5-(difluoromethyl)-1,3,4-oxadiazol-2-yl)phenyl)ethyl)-1H-1,2,3-triazol-4-yl)pyridin-2-amine] | 197 nM | > 200000 nM |
| O=C1Nc2ccc(-c3cn(Cc4ccc(-c5nnc(C(F)F)o5)cn4)nn3)cc2C12CCCC2 [Compd. 26, 5′-(1-((5-(5-(difluoromethyl)-1,3,4-oxadiazol-2-yl)pyridin-2-yl)methyl)-1H-1,2,3-triazol-4-yl)spiro[cyclopentane-1,3′-indolin]-2′-one] | 8 nM | > 200000 nM |
| Nc1cccc(-c2cn(Cc3ccc(-c4nnc(C(F)F)o4)cc3)cn2)c1 [compd. 197, 3-(1-(4-(5-(difluoromethyl)-1,3,4-oxadiazol-2-yl)benzyl)-1H-imidazol-4-yl)aniline] | 107 nM | > 200000 nM |
| O=C1CCc2c1cccc2-c1nnn(Cc2ccc(-c3nnc(C(F)F)o3)cc2)n1 [compound 208, 4-(2-(4-(5-(difluoromethyl)-1,3,4-oxadiazol-2-yl)benzyl)-2H-tetrazol-5-yl)-2,3-dihydro-1H-inden-1-one] | 132 nM | > 200000 nM |
| NCc1ccc(-c2nc(Cc3ccc(-c4nnc(C(F)F)o4)cc3)no2)cc1 [compound 191, (4-(3-(4-(5-(difluoromethyl)-1,3,4-oxadiazol-2-yl)benzyl)-1,2,4-oxadiazol-5-yl)phenyl)methanamine] | 102 nM | > 200000 nM |
